Values joined by “and” are separate entries in the source; they are usually repeats but may differ in a detail not shown here. Identical values can stand only once. Toxic doses and inconclusive results are not listed. No stated cut-off is given here; in the data, active means T/C of 150% or more; inactive means T/C below 125%.
Test system: L1210 leukemia ip in BDF1 mice, survival T/C
Test: NCI In Vivo Anticancer Drug Screen. Data for tumor model L1210 Leukemia (intraperitoneal) in B6D2F1 (BDF1) mice
Settings: endpoint: mean survival time, higher = longer survival
Procedure, shortened: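 In this screen, tumor-bearing mice given compound are compared to those given vehicle, and their survival values are reported as a treated-to-control quotient.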

[1] = dose: 100.0 mg/kg/injection, schedule: Q04DX002 (ip), vehicle: Klucel (hydroxypropylcellulose) (HPC)
[2] = dose: 200.0 mg/kg/injection, schedule: Q04DX002 (ip), vehicle: Klucel (hydroxypropylcellulose) (HPC)
[3] = dose: 400.0 mg/kg/injection, schedule: Q04DX002 (ip), vehicle: Klucel (hydroxypropylcellulose) (HPC)
[4] = dose: 100.0 mg/kg/injection, schedule: Q04DX003 (ip), vehicle: saline
[5] = dose: 200.0 mg/kg/injection, schedule: Q04DX003 (ip), vehicle: saline
[6] = dose: 400.0 mg/kg/injection, schedule: Q04DX003 (ip), vehicle: saline
[7] = dose: 100.0 mg/kg/injection, schedule: Q01DX009 (ip), vehicle: Klucel (hydroxypropylcellulose) (HPC)
[8] = dose: 100.0 mg/kg/injection, schedule: Q01DX001 (ip), vehicle: Klucel (hydroxypropylcellulose) (HPC)
[9] = dose: 200.0 mg/kg/injection, schedule: Q01DX001 (ip), vehicle: Klucel (hydroxypropylcellulose) (HPC)
[10] = dose: 200.0 mg/kg/injection, schedule: Q01DX009 (ip), vehicle: Klucel (hydroxypropylcellulose) (HPC)
[11] = dose: 400.0 mg/kg/injection, schedule: Q01DX001 (ip), vehicle: Klucel (hydroxypropylcellulose) (HPC)
[12] = dose: 400.0 mg/kg/injection, schedule: Q01DX009 (ip), vehicle: Klucel (hydroxypropylcellulose) (HPC)
[13] = dose: 100.0 mg/kg/injection, schedule: Q01DX001 (ip), vehicle: carboxymethylcellulose (CMC)
[14] = dose: 400.0 mg/kg/injection, schedule: Q01DX001 (ip), vehicle: carboxymethylcellulose (CMC)

Measured: T/C

O=c1oc(Cl)cc2oc(=O)n(-c3ccccc3)c(=O)c12
inactive: dose: 6.25 mg/kg/injection, schedule: Q01DX009 (ip), vehicle: saline with Tween-80 106 % of control | dose: 12.5 mg/kg/injection, schedule: Q01DX009 (ip), vehicle: saline with Tween-80 98 % of control | dose: 25.0 mg/kg/injection, schedule: Q01DX009 (ip), vehicle: saline with Tween-80 93 % of control and 109 % of control | dose: 25.0 mg/kg/injection, schedule: Q04DX002 (ip), vehicle: saline with Tween-80 98 % of control | dose: 50.0 mg/kg/injection, schedule: Q04DX002 (ip), vehicle: saline with Tween-80 102 % of control | dose: 100.0 mg/kg/injection, schedule: Q04DX002 (ip), vehicle: saline with Tween-80 96 % of control and 98 % of control

Nc1ccc2cc(S(=O)(=O)O)cc(S(=O)(=O)O)c2c1 (tested in a mixture with another compound)
inactive: dose: 80.0 mg/kg/injection, schedule: Q01DX Z (ip), vehicle: saline 97 % of control | dose: 170.0 mg/kg/injection, schedule: Q01DX Z (ip), vehicle: saline 96 % of control

CN(C)c1ncnc2c1ncn2C1OC(CO)C(N)C1O (stereo not drawn)
inactive: dose: 6.25 mg/kg/injection, schedule: Q01DX009 (ip), vehicle: saline 111 % of control | dose: 12.5 mg/kg/injection, schedule: Q01DX009 (ip), vehicle: saline 111 % of control | dose: 25.0 mg/kg/injection, schedule: Q01DX009 (ip), vehicle: saline 117 % of control | dose: 50.0 mg/kg/injection, schedule: Q01DX001 (ip), vehicle: saline 109 % of control | dose: 100.0 mg/kg/injection, schedule: Q01DX001 (ip), vehicle: saline 109 % of control | dose: 200.0 mg/kg/injection, schedule: Q01DX001 (ip), vehicle: saline 109 % of control | dose: 400.0 mg/kg/injection, schedule: Q01DX001 (ip), vehicle: saline 115 % of control

ClC1=C(Cl)C2(Cl)C3C4CC(CC4Cl)C3C1(Cl)C2(Cl)Cl (stereo not drawn)
inactive: dose: 75.0 mg/kg/injection, schedule: Q01DX001 (ip), vehicle: steriod suspending solution 93 % of control | dose: 150.0 mg/kg/injection, schedule: Q01DX001 (ip), vehicle: steriod suspending solution 90 % of control | dose: 300.0 mg/kg/injection, schedule: Q01DX001 (ip), vehicle: steriod suspending solution 98 % of control

O=C(O)CCCCCCCCCCN1C(=O)c2cccc([N+](=O)[O-])c2C1=O
inactive: dose: 87.5 mg/kg/injection, schedule: Q04DX003 (ip), vehicle: carboxymethylcellulose (CMC) 101 % of control | dose: 175.0 mg/kg/injection, schedule: Q04DX003 (ip), vehicle: carboxymethylcellulose (CMC) 97 % of control | dose: 350.0 mg/kg/injection, schedule: Q04DX003 (ip), vehicle: carboxymethylcellulose (CMC) 87 % of control

CCCCOP(=O)(/C=C/c1ccc(NC(C)=O)cc1)OCCCC
inactive: [1] 104 % of control | [2] 96 % of control | [3] 89 % of control

CN(CCCCC(=O)NC(CCC(=O)O)C(=O)O)Cc1cnc2nc(N)nc(N)c2n1 (stereo not drawn)
inactive: dose: 20.0 mg/kg/injection, schedule: Q01DX009 (ip), vehicle: saline 94 % of control | dose: 40.0 mg/kg/injection, schedule: Q01DX009 (ip), vehicle: saline 112 % of control | dose: 80.0 mg/kg/injection, schedule: Q01DX009 (ip), vehicle: saline 94 % of control

COc1ccc(-n2c(=O)c(N=Nc3ccc(Cl)cc3)c(O)n(-c3ccc(C)cc3)c2=S)cc1
inactive: dose: 37.5 mg/kg/injection, schedule: Q01DX001 (ip), vehicle: Klucel (hydroxypropylcellulose) (HPC) 92 % of control | dose: 75.0 mg/kg/injection, schedule: Q01DX001 (ip), vehicle: Klucel (hydroxypropylcellulose) (HPC) 92 % of control | dose: 150.0 mg/kg/injection, schedule: Q01DX001 (ip), vehicle: Klucel (hydroxypropylcellulose) (HPC) 91 % of control

NC(=NC(=O)c1ccccc1)N[N+](=O)[O-]
inactive: dose: 100.0 mg/kg/injection, schedule: Q04DX002 (ip), vehicle: gum acacia 104 % of control | dose: 200.0 mg/kg/injection, schedule: Q04DX002 (ip), vehicle: gum acacia 107 % of control | dose: 400.0 mg/kg/injection, schedule: Q04DX002 (ip), vehicle: gum acacia 104 % of control

O=C(O)c1ccc(SSc2ccc(C(=O)O)cn2)nc1
inactive: [4] 102 % of control | [5] 101 % of control | [6] 104 % of control

O=C(/C=C1\C(=O)Nc2ccccc21)/C=C1/C(=O)Nc2ccccc21
inactive: [7] 93 % of control

O=C1/C(=C\c2cccnc2)CCCc2ccccc21
inactive: dose: 100.0 mg/kg/injection, schedule: Q04DX003 (ip), vehicle: carboxymethylcellulose (CMC) 100 % of control | dose: 200.0 mg/kg/injection, schedule: Q04DX003 (ip), vehicle: carboxymethylcellulose (CMC) 98 % of control | dose: 400.0 mg/kg/injection, schedule: Q04DX003 (ip), vehicle: carboxymethylcellulose (CMC) 98 % of control

COC1=CC(C)C2CC3OC(O)CC4C(C)=C(OC)C(=O)C(C2(C)C1=O)C34C (stereo not drawn)
inactive: [8] 102 % of control | [7] 91 % of control | dose: 100.0 mg/kg/injection, schedule: Q04DX003 (ip), vehicle: Klucel (hydroxypropylcellulose) (HPC) 96 % of control | [9] 105 % of control | [10] 100 % of control | dose: 200.0 mg/kg/injection, schedule: Q04DX003 (ip), vehicle: Klucel (hydroxypropylcellulose) (HPC) 97 % of control | [11] 105 % of control | [12] 94 % of control | dose: 400.0 mg/kg/injection, schedule: Q04DX003 (ip), vehicle: Klucel (hydroxypropylcellulose) (HPC) 96 % of control

CC(Oc1cc(Cl)c(Cl)cc1Cl)C(=O)OCCCc1ccccn1 (stereo not drawn)
inactive: dose: 50.0 mg/kg/injection, schedule: Q01DX009 (ip), vehicle: Klucel (hydroxypropylcellulose) (HPC) 106 % of control | [7] 100 % of control and 111 % of control | [1] 103 % of control | [10] 114 % of control | [2] 107 % of control | [3] 90 % of control

O=CNc1cccc2c1-c1ccccc1C2=O
inactive: [13] 96 % of control | dose: 200.0 mg/kg/injection, schedule: Q01DX001 (ip), vehicle: carboxymethylcellulose (CMC) 91 % of control | [14] 99 % of control

CC12CCC(=O)C=C1CCC1C2CCC2(C)C1CCC2(O)C#CCN(CCCl)CCCl (stereo not drawn)
inactive: dose: 100.0 mg/kg/injection, schedule: Q01DX001 (sc), vehicle: steriod suspending solution 96 % of control | dose: 200.0 mg/kg/injection, schedule: Q01DX001 (sc), vehicle: steriod suspending solution 104 % of control | dose: 400.0 mg/kg/injection, schedule: Q01DX001 (sc), vehicle: steriod suspending solution 98 % of control

Cc1cc(OCCBr)ccc1[N+](=O)[O-]
inactive: [8] 92 % of control | [9] 95 % of control | [11] 95 % of control

[N-]=[N+]=Nc1ccc2cc3ccccc3nc2c1
inactive: dose: 100.0 mg/kg/injection, schedule: Q04DX003 (ip), vehicle: acetone 89 % of control | dose: 200.0 mg/kg/injection, schedule: Q04DX003 (ip), vehicle: acetone 95 % of control | dose: 400.0 mg/kg/injection, schedule: Q04DX003 (ip), vehicle: acetone 87 % of control

CC(O)C(O)C(=O)OCc1ccccc1 (stereo not drawn)
inactive: dose: 100.0 mg/kg/injection, schedule: Q01DX009 (ip), vehicle: saline 117 % of control | [4] 101 % of control | dose: 200.0 mg/kg/injection, schedule: Q01DX009 (ip), vehicle: saline 102 % of control | [5] 103 % of control | dose: 400.0 mg/kg/injection, schedule: Q01DX009 (ip), vehicle: saline 110 % of control | [6] 98 % of control

CCCCCCCCC(=O)N1CC(C)OC(C)C1 (stereo not drawn)
inactive: [7] 120 % of control | dose: 100.0 mg/kg/injection, schedule: Q04DX003 (ip), vehicle: other 118 % of control | [10] 87 % of control | dose: 200.0 mg/kg/injection, schedule: Q04DX003 (ip), vehicle: other 109 % of control | [12] 94 % of control | dose: 400.0 mg/kg/injection, schedule: Q04DX003 (ip), vehicle: other 104 % of control

Cc1cnc(SCc2ccc(F)cc2)nc1N(C)C
inactive: dose: 100.0 mg/kg/injection, schedule: Q01DX Z (ip), vehicle: methylcellulose (MC) 88 % of control

CCC(/C=N\NC(=O)CCCC(=O)N/N=C/C(CC)CC)CC
inactive: dose: 50.0 mg/kg/injection, schedule: Q01DX001 (ip), vehicle: carboxymethylcellulose (CMC) 90 % of control | [13] 90 % of control | [14] 90 % of control

— PubChem BioAssay AID248 (DTP/NCI, 2004)
